Assay results from patent US7645463B2, “Method for treating diabetic vascular complications” (National Yang-Ming University, priority 2006, dated 2010).
Marks after values point to notes of the source that are not given here.

Tested on: Mouse Kupffer cell
Assay: Phagocytosis assay of Kupffer cell (FITC-beads ingestion)
Type: cell-based
Details: relative to control (2% FCS) = 1
Method: C57BL6/j mice were intraperitoneally (ip) injected with a mixture of Rompun® xylazine anesthesia and ketamin (S-(+)-ketamine) anesthesia mixed at a ratio of 1:3. The central vein of each mouse was cannulated with a polyethylene catheter, and the liver tissue was perfused with 10 ml Ca^2+-free HBSS buffer for 10 minutes at a perfusion rate of 1 ml/min, and HBSS buffer containing 0.05% collagenase type IV for 10 minutes at the perfusion rate of 1 mL/min to soften the liver tissue. The softened liver tissue was excised, rinsed and cut open by a pair of forceps to release cell suspension from the liver tissue. After the connective tissue was detached, the cell suspension was filtered with a #53 nylon mesh and centrifuged at 30 g for 3 minutes. The cell suspension was then centrifuged at 600 g for 5 minutes. The supernatant was discarded and the cell pellet was resuspended in 15 mL RBC lysis buffer and allowed a reaction to take place for 2 minutes. The cell suspension was added with 15 mL of RPMI 1640 medium and centrifuged, and the cell pellet was resuspended in 5 mL of RPMI 1640 medium and layered on top of a Percoll™ solution consisting of 25% (v/v) Percoll™ density gradient medium. The cell solution was centrifuged, and the cell pellet containing enriched Kupffer cells was collected. The enriched Kupffer cells were washed with RPMI 1640 medium and resuspended in serum-free RPMI 1640 medium.
Kupffer cells were seeded (4×10^5 cells/well) in a 96-well culture plate and cultured in RPMI medium supplemented with 10% FCS, also known as 10% FCS RPMI medium hereinafter, for at least 24 hours. The medium was changed to 2% FCS RPMI medium added with PH of different concentrations (1000 μg/mL, 100 μg/mL, 10 μg/mL and 1 μg/mL). […] FluoroQuench™ dye (0.5 μL/well) was added to quench the fluorescence from the […] 1 μm-sized FITC-beads. The fluorescence of the ingested 1 μm-sized FITC-beads was measured with a cytofluorometer after one hour and normalized with the fluorescence of the control group to determine the relative phagocytosis index as shown in Table 2.

tuftsin
Mouse Kupffer cell Ingestion phagocytosis Index (1 μg/ml): 1.49**
Mouse Kupffer cell Ingestion phagocytosis Index (10 μg/ml): 1.2*
Mouse Kupffer cell Ingestion phagocytosis Index (100 μg/ml): 1.01
